Measured values from ChEMBL document CHEMBL1201862, “PubChem BioAssay data set” (2004).
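A five-concentration, 48-hour dose response in 96-well plates underlies each endpoint, interpolated linearly between surrounding concentrations. Here, GI50 denotes the concentration required for 50% inhibition of growth.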 Calls of active or inactive are those of the source. No stated cut-off is given here; in the data, active = GI50 up to about 1.1 µM and inactive = higher.

Columns and labels:
Experiment in all cases: growth of human tumour cells (NCI), 48 h
786-0 = test system: 786-0
A498 = test system: A498
A549 = test system: A549
ACHN = test system: ACHN
BT-549 = test system: BT-549
CAKI-1 = test system: CAKI-1
CCRF-CEM = test system: CCRF-CEM
COLO 205 = test system: COLO 205
DU-145 = test system: DU-145
EKVX = test system: EKVX
HCC 2998 = test system: HCC 2998
HCT-116 = test system: HCT-116
HCT-15 = test system: HCT-15
HL-60 = test system: HL-60
HOP-62 = test system: HOP-62
HOP-92 = test system: HOP-92
HT-29 = test system: HT-29
IGROV-1 = test system: IGROV-1
K562 = test system: K562
KM12 = test system: KM12
LOX IMVI = test system: LOX IMVI
M14 = test system: M14
MCF7 = test system: MCF7
MDA-MB-231 = test system: MDA-MB-231
MDA-MB-435 = test system: MDA-MB-435
MDA-N = test system: MDA-N
MOLT-4 = test system: MOLT-4
Malme-3M = test system: Malme-3M
NCI-H226 = test system: NCI-H226
NCI-H23 = test system: NCI-H23
NCI-H460 = test system: NCI-H460
NCI-H522 = test system: NCI-H522
NCI/ADR-RES = test system: NCI/ADR-RES
OVCAR-3 = test system: OVCAR-3
OVCAR-4 = test system: OVCAR-4
OVCAR-5 = test system: OVCAR-5
OVCAR-8 = test system: OVCAR-8
PC-3 = test system: PC-3
RPMI-8226 = test system: RPMI-8226
RXF 393 = test system: RXF 393
SF-268 = test system: SF-268
SF-295 = test system: SF-295
SF-539 = test system: SF-539
SK-MEL-28 = test system: SK-MEL-28
SK-MEL-2 = test system: SK-MEL-2
SK-OV-3 = test system: SK-OV-3
SN12C = test system: SN12C
SNB-19 = test system: SNB-19
SNB-75 = test system: SNB-75
SR = test system: SR
SW-620 = test system: SW-620
T47D = test system: T47D
TK-10 = test system: TK-10
U-251 = test system: U-251
UACC-257 = test system: UACC-257
UACC-62 = test system: UACC-62
UO-31 = test system: UO-31

In the case of `CCN1CCN(c2nc3ccccc3nc2C(=O)c2ccc(OC)c(OC)c2)CC1`, the GI50 (786-0) is reported as 10.7 µM (inactive), the GI50 (A498) is reported as 27.7 µM (inactive) and the GI50 (A549) is reported as 13.6 µM (inactive). For the same compound, the GI50 (ACHN) was 9.91 µM (inactive), the GI50 (BT-549) was 21.2 µM (inactive) and the GI50 (CAKI-1) was 82.4 µM (inactive). For the same compound, the GI50 (CCRF-CEM) was 10 µM (inactive), the GI50 (COLO 205) was 1.5 µM (inactive) and the GI50 (DU-145) was 30.5 µM (inactive). The GI50 (EKVX) was 19 µM (inactive), the GI50 (HCC 2998) was 2.3 µM (inactive) and the GI50 (HCT-116) was 5.31 µM (inactive). For the same compound, the GI50 (HCT-15) was 13.7 µM, the GI50 (HL-60) was 44.1 µM (inactive) and the GI50 (HOP-62) was 21.4 µM (inactive). For the same compound, the GI50 (HOP-92) was 7.48 µM (inactive), the GI50 (HT-29) was 12.6 µM (inactive) and the GI50 (IGROV-1) was 16.6 µM (inactive). The GI50 (K562) was 12.6 µM (inactive), the GI50 (KM12) was 15.4 µM (inactive) and the GI50 (LOX IMVI) was 12.7 µM (inactive). For the same compound, the GI50 (M14) was 16.2 µM (inactive), the GI50 (MCF7) was 18.2 µM (inactive) and the GI50 (MDA-MB-231) was 14.8 µM (inactive). For the same compound, the GI50 (MDA-MB-435) was 25.4 µM (inactive), the GI50 (MDA-N) was 25.4 µM (inactive) and the GI50 (MOLT-4) was 5.16 µM (inactive). For the same compound, the GI50 (Malme-3M) was 16.4 µM (inactive), the GI50 (NCI-H226) was 22.3 µM (inactive) and the GI50 (NCI-H23) was 24.3 µM (inactive). For the same compound, the GI50 (NCI-H460) was 6.81 µM (inactive), the GI50 (NCI-H522) was 12 µM (inactive) and the GI50 (NCI/ADR-RES) was 1.6 µM (inactive). The GI50 (OVCAR-3) was 22.2 µM (inactive), the GI50 (OVCAR-4) was 10 µM (inactive) and the GI50 (OVCAR-5) was 41.7 µM (inactive). The GI50 (OVCAR-8) was 12.6 µM (inactive), the GI50 (PC-3) was 32.7 µM (inactive) and the GI50 (RPMI-8226) was 10.1 µM (inactive). The GI50 (RXF 393) was 12.2 µM (inactive), the GI50 (SF-268) was 19.3 µM (inactive) and the GI50 (SF-295) was 11.9 µM (inactive). The GI50 (SF-539) was 1.73 µM (inactive), the GI50 (SK-MEL-28) was 13.5 µM (inactive) and the GI50 (SK-MEL-2) was 47.8 µM (inactive). For the same compound, the GI50 (SK-OV-3) was 12.1 µM (inactive), the GI50 (SN12C) was 42.1 µM (inactive) and the GI50 (SNB-19) was 24 µM (inactive). The GI50 (SNB-75) was 12.9 µM (inactive), the GI50 (SR) was 7.06 µM (inactive) and the GI50 (SW-620) was 15.7 µM (inactive). The GI50 (T47D) was > 100 µM (inactive), the GI50 (TK-10) was 22.4 µM (inactive) and the GI50 (U-251) was 14.8 µM (inactive). For the same compound, the GI50 (UACC-257) was 21.9 µM (inactive), the GI50 (UACC-62) was > 100 µM (inactive) and the GI50 (UO-31) was 13.7 µM (inactive).
